# Key:
# [1] = pA2 value is determined compared to standard H1-antagonists; type: ADME
# [2] = Partition coefficient (logP); type: physicochemical; details: octanol/water
# [3] = Dissociation constant (KD) of the compound
# Cavia porcellus [4] = experiment: Compound is tested for protection by antihistamines against histamine-induced lethality in the guinea pig by oral administration with pretreatment period of 18 h; type: functional
# Cavia porcellus [5] = experiment: Compound is tested for protection by antihistamines against histamine-induced lethality in the guinea pig by oral administration with a pretreatment period of 1 h; type: functional
# [6] = biological target: Histamine H1 receptor (Cavia porcellus) (UniProt P31389); experiment: In vitro antagonism of histamine-induced contraction of guinea pig ileum at 1x10E-7M; type: functional, tissue-based
# [7] = biological target: Histamine H1 receptor (Cavia porcellus) (UniProt P31389); experiment: Compound is evaluated for the inhibition of H1-receptor antagonists of histamine-induced skin wheal formation in the guinea pig with a pretreatment interval prior to histamine challenge at 18 h; type: functional
# [8] = biological target: Histamine H1 receptor (Cavia porcellus) (UniProt P31389); experiment: Compound is evaluated for the inhibition of H1-receptor antagonists of histamine-induced skin wheal formation in the guinea pig with a pretreatment interval prior to histamine challenge at 1 h; type: functional
# Histamine H1 receptor = Histamine H1 receptor (Cavia porcellus, UniProt P31389); experiment: Compound is evaluated for in vitro receptor binding affinity against H1 receptor
# D(2) dopamine receptor = D(2) dopamine receptor (Homo sapiens, UniProt P14416); experiment: Compound is evaluated for in vitro receptor binding affinity against Dopamine receptor D2; design: species or system Cavia porcellus
# [9] = biological target: T1, Muscarinic acetylcholine receptor M2 (Homo sapiens, UniProt P08172); experiment: Compound is evaluated for in vitro receptor binding affinity against Muscarinic acetylcholine receptor M2; design: species or system Cavia porcellus
# T1 sequence (P08172 whole entry): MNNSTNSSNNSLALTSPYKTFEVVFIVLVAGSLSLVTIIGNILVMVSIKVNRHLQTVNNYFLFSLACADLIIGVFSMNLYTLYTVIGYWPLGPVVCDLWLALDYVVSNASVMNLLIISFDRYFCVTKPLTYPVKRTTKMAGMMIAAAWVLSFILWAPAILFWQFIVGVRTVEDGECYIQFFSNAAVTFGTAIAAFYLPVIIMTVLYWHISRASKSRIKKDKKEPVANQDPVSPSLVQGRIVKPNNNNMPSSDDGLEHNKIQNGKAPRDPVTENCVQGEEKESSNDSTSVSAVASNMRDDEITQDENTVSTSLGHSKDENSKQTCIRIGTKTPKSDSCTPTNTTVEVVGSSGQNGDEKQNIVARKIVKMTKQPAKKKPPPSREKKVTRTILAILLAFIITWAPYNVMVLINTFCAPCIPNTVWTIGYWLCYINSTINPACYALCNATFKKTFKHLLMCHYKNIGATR
# [10] = Potency relative to 7-[3-(4-Benzhydryloxy-piperidine-1-yl)-propyl]-1,3-dimethyl-3,7-dihydro-purine-2,6-dione; Relative potency = […]/[…]
# [11] = biological target: T2, 5-hydroxytryptamine receptor 1A (Homo sapiens, UniProt P08908); experiment: Compound is evaluated for in vitro receptor binding affinity against 5-hydroxytryptamine 1A receptor; design: species or system Cavia porcellus
# T2 sequence (P08908 whole entry): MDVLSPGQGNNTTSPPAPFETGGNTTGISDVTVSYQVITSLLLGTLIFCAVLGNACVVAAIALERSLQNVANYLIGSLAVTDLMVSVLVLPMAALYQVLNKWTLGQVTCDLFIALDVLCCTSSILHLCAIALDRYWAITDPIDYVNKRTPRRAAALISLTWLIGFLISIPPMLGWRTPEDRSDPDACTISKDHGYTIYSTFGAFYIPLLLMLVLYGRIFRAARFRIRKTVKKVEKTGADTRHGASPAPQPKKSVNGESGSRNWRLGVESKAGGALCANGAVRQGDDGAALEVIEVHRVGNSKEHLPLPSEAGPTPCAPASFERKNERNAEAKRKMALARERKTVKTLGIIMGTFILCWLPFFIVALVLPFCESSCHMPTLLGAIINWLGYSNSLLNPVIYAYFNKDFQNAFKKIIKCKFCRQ
# [12] = biological target: T3, Adrenergic receptor alpha-1 (Homo sapiens, UniProt P35348+P25100+P35368); experiment: Compound is evaluated for in vitro receptor binding affinity against Alpha-1 adrenergic receptor; type: protein assay, Cavia porcellus
# T3 sequence (P35348 whole entry): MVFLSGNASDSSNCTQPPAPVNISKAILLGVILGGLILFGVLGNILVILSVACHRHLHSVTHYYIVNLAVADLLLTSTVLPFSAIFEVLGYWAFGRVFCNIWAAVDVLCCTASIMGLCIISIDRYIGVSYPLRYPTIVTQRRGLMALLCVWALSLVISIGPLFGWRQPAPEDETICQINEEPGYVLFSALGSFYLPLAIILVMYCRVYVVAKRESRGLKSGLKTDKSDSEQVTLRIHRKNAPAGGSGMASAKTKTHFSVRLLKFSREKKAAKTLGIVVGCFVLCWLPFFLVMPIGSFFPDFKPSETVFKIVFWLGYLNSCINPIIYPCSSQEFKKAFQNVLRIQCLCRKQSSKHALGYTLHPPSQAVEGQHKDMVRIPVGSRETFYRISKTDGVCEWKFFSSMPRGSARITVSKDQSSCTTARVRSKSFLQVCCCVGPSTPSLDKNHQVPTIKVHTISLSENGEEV
# T3 sequence (P25100 whole entry): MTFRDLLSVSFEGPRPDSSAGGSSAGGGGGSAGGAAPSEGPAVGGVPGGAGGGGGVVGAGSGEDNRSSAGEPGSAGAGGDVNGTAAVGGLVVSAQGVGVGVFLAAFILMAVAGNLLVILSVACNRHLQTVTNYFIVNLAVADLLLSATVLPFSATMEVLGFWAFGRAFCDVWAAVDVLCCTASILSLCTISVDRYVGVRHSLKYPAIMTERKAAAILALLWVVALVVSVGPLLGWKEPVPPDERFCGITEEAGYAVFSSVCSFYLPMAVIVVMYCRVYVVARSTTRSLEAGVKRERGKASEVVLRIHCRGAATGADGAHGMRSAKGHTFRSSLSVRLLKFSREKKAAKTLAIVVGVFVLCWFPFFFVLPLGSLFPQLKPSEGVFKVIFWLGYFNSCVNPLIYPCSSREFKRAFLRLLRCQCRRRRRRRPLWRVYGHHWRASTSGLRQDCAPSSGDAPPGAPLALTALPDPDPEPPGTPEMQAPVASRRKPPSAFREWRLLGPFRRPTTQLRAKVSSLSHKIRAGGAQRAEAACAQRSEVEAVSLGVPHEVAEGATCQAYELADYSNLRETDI
# T3 sequence (P35368 whole entry): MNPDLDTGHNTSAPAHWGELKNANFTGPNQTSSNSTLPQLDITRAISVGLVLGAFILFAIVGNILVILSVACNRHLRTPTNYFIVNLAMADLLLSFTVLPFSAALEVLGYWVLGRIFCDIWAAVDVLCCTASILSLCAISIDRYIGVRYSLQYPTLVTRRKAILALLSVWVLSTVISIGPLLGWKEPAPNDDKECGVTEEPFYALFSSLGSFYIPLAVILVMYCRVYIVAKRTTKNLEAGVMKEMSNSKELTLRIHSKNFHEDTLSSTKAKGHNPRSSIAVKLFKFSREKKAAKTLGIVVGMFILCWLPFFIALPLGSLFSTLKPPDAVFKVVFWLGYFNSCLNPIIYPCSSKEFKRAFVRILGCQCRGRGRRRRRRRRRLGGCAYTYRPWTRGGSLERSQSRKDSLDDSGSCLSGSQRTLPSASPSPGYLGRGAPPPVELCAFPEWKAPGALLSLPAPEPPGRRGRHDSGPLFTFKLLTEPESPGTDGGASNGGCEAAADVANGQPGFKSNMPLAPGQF
# [13] = biological target: T4, Muscarinic acetylcholine receptor M1 (Homo sapiens, UniProt P11229); experiment: Compound is evaluated for in vitro receptor binding affinity against Muscarinic acetylcholine receptor M1; design: species or system Cavia porcellus
# T4 sequence (P11229 whole entry): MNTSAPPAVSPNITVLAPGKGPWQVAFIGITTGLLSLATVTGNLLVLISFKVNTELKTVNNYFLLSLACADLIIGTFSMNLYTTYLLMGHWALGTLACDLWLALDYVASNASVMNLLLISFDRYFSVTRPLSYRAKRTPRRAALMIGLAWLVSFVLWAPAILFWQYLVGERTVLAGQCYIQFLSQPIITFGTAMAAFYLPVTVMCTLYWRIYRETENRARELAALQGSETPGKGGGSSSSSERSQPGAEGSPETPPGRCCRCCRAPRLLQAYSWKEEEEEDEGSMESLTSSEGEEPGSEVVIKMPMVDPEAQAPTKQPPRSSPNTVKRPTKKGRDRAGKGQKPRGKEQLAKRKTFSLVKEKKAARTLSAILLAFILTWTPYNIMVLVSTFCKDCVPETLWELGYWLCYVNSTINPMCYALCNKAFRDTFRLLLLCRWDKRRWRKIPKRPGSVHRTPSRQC
# Sequence of Histamine H1 receptor (Cavia porcellus) (P31389 whole entry): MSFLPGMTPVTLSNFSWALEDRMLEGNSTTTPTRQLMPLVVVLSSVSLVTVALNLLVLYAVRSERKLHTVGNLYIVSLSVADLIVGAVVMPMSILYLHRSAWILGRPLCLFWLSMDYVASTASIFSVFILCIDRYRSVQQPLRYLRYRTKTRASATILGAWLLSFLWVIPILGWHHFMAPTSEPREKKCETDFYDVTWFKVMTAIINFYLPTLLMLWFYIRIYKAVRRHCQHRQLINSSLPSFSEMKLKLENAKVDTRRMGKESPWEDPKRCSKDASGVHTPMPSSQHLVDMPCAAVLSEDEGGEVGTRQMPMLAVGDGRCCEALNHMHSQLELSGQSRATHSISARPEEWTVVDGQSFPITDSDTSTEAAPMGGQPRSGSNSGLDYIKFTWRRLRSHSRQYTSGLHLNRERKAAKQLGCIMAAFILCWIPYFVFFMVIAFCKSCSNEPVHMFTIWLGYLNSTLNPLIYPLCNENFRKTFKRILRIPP
# Sequence of D(2) dopamine receptor (P14416 whole entry): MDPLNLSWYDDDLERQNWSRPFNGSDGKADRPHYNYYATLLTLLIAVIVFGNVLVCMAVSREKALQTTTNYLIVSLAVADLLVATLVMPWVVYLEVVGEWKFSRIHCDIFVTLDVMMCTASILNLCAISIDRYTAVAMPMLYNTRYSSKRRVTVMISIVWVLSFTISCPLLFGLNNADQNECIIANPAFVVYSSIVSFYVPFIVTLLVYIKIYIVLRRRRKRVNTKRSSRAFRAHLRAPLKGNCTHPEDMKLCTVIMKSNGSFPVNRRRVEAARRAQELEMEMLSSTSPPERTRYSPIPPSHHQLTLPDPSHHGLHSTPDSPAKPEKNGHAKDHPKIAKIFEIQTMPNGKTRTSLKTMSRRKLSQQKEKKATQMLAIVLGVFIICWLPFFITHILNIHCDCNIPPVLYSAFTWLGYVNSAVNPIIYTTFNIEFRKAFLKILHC
# Sequence of Histamine H1 receptor (P31389 whole entry): as the sequence (P31389 whole entry) above
structure (smiles),measurement,setting,value
CC(C)(C)c1ccc(C(=O)CCCN2CCC(OC(c3ccccc3)c3ccccc3)CC2)cc1 [EBASTINE],pA2,[1],7.4
same,logP,[2],2.74
same,Kd,[3],0.004 µM
same,ED50,Cavia porcellus [4],1.71 mg/kg
same,ED50,Cavia porcellus [5],0.45 mg/kg
Cn1c(=O)c2c(ncn2CCCCN2CCN(C(c3ccc(Cl)cc3)c3ccc(Cl)cc3)CC2)n(C)c1=O,inhibition,[6],14%
O=C1CC2(CCCC2)CC(=O)N1CCCCN1CCN(C(c2ccc(F)cc2)c2ccc(F)cc2)CC1,inhibition,[6],77%
CN(C)CCC(c1ccc(Cl)cc1)c1ccccn1 (centres undefined) [CHLORPHENIRAMINE],pA2,[1],8.4
same,Kd,[3],0.0037 µM
same,ED50,[7],1.07 mg/kg
same,ED50,[8],0.79 mg/kg
Cn1c(=O)c2c(ncn2CCCN2CCN(c3cncc(Cl)n3)CC2)n(C)c1=O,inhibition,[6],29%
CC(C)(C)c1ccc(C(O)CCCN2CCC(C(O)(c3ccccc3)c3ccccc3)CC2)cc1 (centres undefined) [TERFENADINE],Kd,[3],0.033 µM
Cn1c(=O)c2c(ncn2CCCN2CCN(C(c3ccccc3)c3ccc(Cl)cc3)CC2)n(C)c1=O (centres undefined),inhibition,[6],29%
Cn1c(=O)c2c(ncn2CCCN2CCN(c3nccnc3Cl)CC2)n(C)c1=O,inhibition,[6],< 10%
O=C1C2C3C=CC(C4CC34)C2C(=O)N1CCCCN1CCN(C(c2ccc(F)cc2)c2ccc(F)cc2)CC1 (centres undefined),inhibition,[6],98%
O=C1C2C3C=CC(C4CC34)C2C(=O)N1CCN1CCN(C(c2ccccc2)c2ccccc2)CC1 (centres undefined),inhibition,[6],< 10%
Cn1c(=O)c2c(ncn2CCCN2CCN(c3ccc(Cl)nn3)CC2)n(C)c1=O,inhibition,[6],50%
O=C1C2C3C=CC(C4CC34)C2C(=O)N1CCCN1CCN(C(c2ccccc2)c2ccc(Cl)cc2)CC1 (centres undefined),inhibition,[6],< 10%
Cl.Cl.Cn1c(=O)c2c(ncn2CCCN2CCN(C(c3ccc(F)cc3)c3ccc(F)cc3)CC2)n(C)c1=O,pA2,[1],8.2
same,logP,[2],1.81
same,IC50,Histamine H1 receptor,0.22 µM
same,% inhibition,D(2) dopamine receptor,43%
same,Kd,[3],0.0066 µM
same,IC50,[9],> 10 µM
same,Relative potency,[10],0.0012
same,inhibition,[6],92%
same,% inhibition,[11],38%
same,ED50,[8],0.45 mg/kg
same,ED50,Cavia porcellus [5],1.96 mg/kg
same,IC50,[12],0.059 µM
same,IC50,[13],0.67 µM
O=C1C2C3C=CC(C4CC34)C2C(=O)N1CCCCN1CCN(C(c2ccccc2)c2ccccc2)CC1 (centres undefined),inhibition,[6],50%
O=C1C2C3C=CC(C4CC34)C2C(=O)N1CCCN1CCN(C(c2ccc(F)cc2)c2ccc(F)cc2)CC1 (centres undefined),inhibition,[6],29%
O=C1C2C3C=CC(C4CC34)C2C(=O)N1CCCCN1CCN(c2ccc(Cl)nn2)CC1 (centres undefined),inhibition,[6],76%
O=C1C2C3C=CC(C4CC34)C2C(=O)N1CCN1CCN(C(c2ccc(F)cc2)c2ccc(F)cc2)CC1 (centres undefined),inhibition,[6],< 10%
COc1ccc(CCN2CCC(Nc3nc4ccccc4n3Cc3ccc(F)cc3)CC2)cc1 [ASTEMIZOLE],pA2,[1],8.3
same,Kd,[3],0.0055 µM
same,ED50,[8],0.53 mg/kg

# — ChEMBL document CHEMBL1128457, “New antihistamines: substituted piperazine and piperidine derivatives as novel H1-antagonists” (J Med Chem, 1995)
